Laboratory results from ChEMBL document CHEMBL1201862, “PubChem BioAssay data set” (2004).
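Cells were grown in 96-well plates and exposed to each compound for 48 hours at five concentrations; endpoints were interpolated linearly between bracketing concentrations, or set to the highest concentration if not reached. GI50 marks 50% less growth.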 Calls of active or inactive are those of the source. Cut-off read from the data, not from the text of the source: active = GI50 up to about 1.1 µM and inactive = higher.

Columns and labels:
Experiment in all cases: DTP human tumour cell line panel, 48 h
OVCAR-3 = tested on: OVCAR-3
HCC 2998 = tested on: HCC 2998
KM12 = tested on: KM12
SNB-75 = tested on: SNB-75
NCI-H226 = tested on: NCI-H226
TK-10 = tested on: TK-10
NCI-H522 = tested on: NCI-H522
HOP-62 = tested on: HOP-62
RPMI-8226 = tested on: RPMI-8226
SF-539 = tested on: SF-539
MCF7 = tested on: MCF7
CAKI-1 = tested on: CAKI-1
SR = tested on: SR
PC-3 = tested on: PC-3
OVCAR-8 = tested on: OVCAR-8
NCI-H23 = tested on: NCI-H23
ACHN = tested on: ACHN
MDA-MB-435 = tested on: MDA-MB-435
A498 = tested on: A498
MDA-N = tested on: MDA-N

Row | SMILES | GI50 (OVCAR-3) | GI50 (HCC 2998) | GI50 (KM12) | GI50 (SNB-75) | GI50 (NCI-H226) | GI50 (TK-10) | GI50 (NCI-H522) | GI50 (HOP-62) | GI50 (RPMI-8226) | GI50 (SF-539) | GI50 (MCF7) | GI50 (CAKI-1) | GI50 (SR) | GI50 (PC-3) | GI50 (OVCAR-8) | GI50 (NCI-H23) | GI50 (ACHN) | GI50 (MDA-MB-435) | GI50 (A498) | GI50 (MDA-N)
1 | COC(=O)C(Cc1ccccc1)NC(=O)CNC(=O)CSc1nnc(COc2ccc(Cl)cc2)n1-c1ccccc1 (centres undefined) | 16.7 µM (inactive) | 12 µM (inactive) | 18.7 µM (inactive) | 17.9 µM (inactive) | 16.5 µM (inactive) | 14.5 µM (inactive) | 2.27 µM (inactive) | 17.7 µM (inactive) | 4.74 µM (inactive) | 17.6 µM (inactive) | 18.2 µM (inactive) | 12.7 µM (inactive) | 2.64 µM (inactive) | 17.1 µM (inactive) | 13.7 µM (inactive) | 18.7 µM (inactive) | 14.2 µM (inactive) | 18.2 µM (inactive) | 15.5 µM (inactive) | –
2 | CCOC(=O)C(=O)CC(=O)C1=C(c2ccccc2OC)CC(c2cccs2)=CC1=O | 41.9 µM (inactive) | – | 34.3 µM (inactive) | 0.418 µM (active) | > 100 µM (inactive) | > 100 µM (inactive) | 20.9 µM (inactive) | 45.4 µM (inactive) | 65.8 µM (inactive) | 67.1 µM (inactive) | – | 57.1 µM (inactive) | – | 24 µM (inactive) | > 100 µM (inactive) | > 100 µM (inactive) | > 100 µM (inactive) | 35.9 µM (inactive) | > 100 µM (inactive) | 36.1 µM (inactive)
3 | CSc1nncc(-c2cc3c(c(SC)n2)CCC3)n1 | > 100 µM (inactive) | – | > 100 µM (inactive) | 22.1 µM (inactive) | > 100 µM (inactive) | > 100 µM (inactive) | 28.8 µM (inactive) | > 100 µM (inactive) | > 100 µM (inactive) | – | – | 40.7 µM (inactive) | – | > 100 µM (inactive) | 24.4 µM (inactive) | > 100 µM (inactive) | 53.6 µM (inactive) | > 100 µM (inactive) | – | –
4 | CN1CCC2(CC1)C(=O)N(NC(N)=O)C(=O)C2c1ccccc1 (centres undefined) | > 100 µM (inactive) | > 100 µM (inactive) | > 100 µM (inactive) | > 100 µM (inactive) | > 100 µM (inactive) | > 100 µM (inactive) | – | > 100 µM (inactive) | > 100 µM (inactive) | > 100 µM (inactive) | > 10 µM (inactive) | > 100 µM (inactive) | – | > 100 µM (inactive) | > 100 µM (inactive) | > 100 µM (inactive) | > 100 µM (inactive) | > 100 µM (inactive) | – | > 100 µM (inactive)
5 | CC(C)(C)OC(=O)N1C[C@H](CC(=O)OCc2ccccc2)C[C@H]1C(=O)OCC(Cl)(Cl)Cl | 3.43 µM (inactive) | 10.7 µM (inactive) | 2.76 µM (inactive) | 10.5 µM (inactive) | 3.55 µM (inactive) | 15.9 µM (inactive) | 1.62 µM (inactive) | 22.8 µM (inactive) | – | 14.5 µM (inactive) | 3.11 µM (inactive) | 3.7 µM (inactive) | 2.04 µM (inactive) | 2.17 µM (inactive) | 6.07 µM (inactive) | 4.49 µM (inactive) | 5.01 µM (inactive) | 5.31 µM (inactive) | 3.44 µM (inactive) | –
6 | Cc1[nH]n(-c2nc(O)c(C)c(=O)[nH]2)c(=O)c1CCO | – | – | > 100 µM (inactive) | 45.6 µM (inactive) | > 100 µM (inactive) | > 100 µM (inactive) | > 100 µM (inactive) | – | > 100 µM (inactive) | > 100 µM (inactive) | > 100 µM (inactive) | > 100 µM (inactive) | – | > 100 µM (inactive) | > 100 µM (inactive) | > 100 µM (inactive) | > 100 µM (inactive) | > 100 µM (inactive) | > 100 µM (inactive) | > 100 µM (inactive)
7 | O=C(O)Cc1ccc(Oc2nc3ccccc3nc2-c2ccccc2)cc1 | 32.6 µM (inactive) | 49.5 µM (inactive) | 60.5 µM (inactive) | > 100 µM (inactive) | 30.5 µM (inactive) | 97.9 µM (inactive) | 42.1 µM (inactive) | > 100 µM (inactive) | 66.8 µM (inactive) | 60.5 µM (inactive) | 56.5 µM (inactive) | 63.5 µM (inactive) | 4.22 µM (inactive) | 56 µM (inactive) | > 100 µM (inactive) | 63.8 µM (inactive) | 51.4 µM (inactive) | 86.1 µM (inactive) | > 100 µM (inactive) | –
8 | C=C(C)[C@@H]1CCC2=C[C@@H](OC2=O)[C@@H](C(=C)C)C2=CC(C(=O)O)=C(C1)O2 | 34.1 µM (inactive) | > 100 µM (inactive) | 80.2 µM (inactive) | > 100 µM (inactive) | > 100 µM (inactive) | > 100 µM (inactive) | > 100 µM (inactive) | > 100 µM (inactive) | 40.6 µM (inactive) | > 100 µM (inactive) | 68.1 µM (inactive) | > 100 µM (inactive) | – | – | > 100 µM (inactive) | > 100 µM (inactive) | > 100 µM (inactive) | > 100 µM (inactive) | > 100 µM (inactive) | > 100 µM (inactive)
9 | CCOP(=O)(OCC)/C(=C\N1C(=O)CC(=O)NC1=S)C(=O)OC | > 100 µM (inactive) | > 100 µM (inactive) | > 100 µM (inactive) | > 100 µM (inactive) | > 100 µM (inactive) | > 100 µM (inactive) | – | > 100 µM (inactive) | – | > 100 µM (inactive) | > 100 µM (inactive) | > 100 µM (inactive) | – | – | > 100 µM (inactive) | > 100 µM (inactive) | > 100 µM (inactive) | > 100 µM (inactive) | > 100 µM (inactive) | > 100 µM (inactive)
10 | O=[N+]([O-])c1ccc(N2N=C(c3ccc4ccccc4c3O)CC2c2ccc(Cl)cc2Cl)c([N+](=O)[O-])c1 (centres undefined) | 33.7 µM (inactive) | 30.3 µM (inactive) | 29 µM (inactive) | 92.7 µM (inactive) | 49.1 µM (inactive) | 63 µM (inactive) | 28 µM (inactive) | 38.1 µM (inactive) | 18.8 µM (inactive) | 25.6 µM (inactive) | 40.9 µM (inactive) | 54.6 µM (inactive) | – | 35.1 µM (inactive) | 33.3 µM (inactive) | 24.7 µM (inactive) | 25.2 µM (inactive) | 29.5 µM (inactive) | – | 40.9 µM (inactive)
11 | Cc1n[nH]c(=O)n1/N=C/c1ccc([N+](=O)[O-])o1 | 5.58 µM (inactive) | 20.6 µM (inactive) | 13.7 µM (inactive) | 32.4 µM (inactive) | 15.6 µM (inactive) | 18.1 µM (inactive) | 3.13 µM (inactive) | 26.9 µM (inactive) | 15.7 µM (inactive) | 19.1 µM (inactive) | 18 µM (inactive) | 7.8 µM (inactive) | – | 29 µM (inactive) | 15.2 µM (inactive) | 13.8 µM (inactive) | 10.9 µM (inactive) | 5.3 µM (inactive) | 22.1 µM (inactive) | –
12 | COc1ccc(N2C(=O)C3c4[nH]c5c(C)cccc5c4C4CCC(c5ccccc5)CC4C3C2=O)cc1 (centres undefined) | 24.8 µM (inactive) | > 10 µM (inactive) | 12.6 µM (inactive) | 10.7 µM (inactive) | 10.4 µM (inactive) | 32.1 µM (inactive) | 3.9 µM (inactive) | 14 µM (inactive) | 7.55 µM (inactive) | – | 6.28 µM (inactive) | 16.9 µM (inactive) | – | 12.1 µM (inactive) | 15.6 µM (inactive) | 24.7 µM (inactive) | 19.7 µM (inactive) | 12.3 µM (inactive) | 18.2 µM (inactive) | 13.5 µM (inactive)
13 | CNC(=O)c1ccccc1[S+]1c2cccc3cccc(c23)C(=O)N1C (centres undefined) | > 100 µM (inactive) | – | > 100 µM (inactive) | – | > 100 µM (inactive) | > 100 µM (inactive) | > 100 µM (inactive) | > 100 µM (inactive) | > 100 µM (inactive) | > 100 µM (inactive) | > 100 µM (inactive) | > 100 µM (inactive) | – | > 100 µM (inactive) | > 100 µM (inactive) | > 100 µM (inactive) | > 100 µM (inactive) | > 100 µM (inactive) | > 100 µM (inactive) | > 100 µM (inactive)
14 | CC1=NCC[N+]1(CCc1ccccc1)Cc1ccccc1 (centres undefined) | 5.71 µM (inactive) | 35.7 µM (inactive) | 47.2 µM (inactive) | > 100 µM (inactive) | 65 µM (inactive) | 48.1 µM (inactive) | 11.6 µM (inactive) | > 100 µM (inactive) | 13.7 µM (inactive) | – | 47.9 µM (inactive) | – | 13.4 µM (inactive) | – | 37.3 µM (inactive) | 19.8 µM (inactive) | > 100 µM (inactive) | – | 60.3 µM (inactive) | 46.3 µM (inactive)
15 | O=C1OC(=O)c2cc(S(=O)(=O)c3ccc4c(c3)C(=O)OC4=O)ccc21 | > 100 µM (inactive) | > 100 µM (inactive) | > 100 µM (inactive) | 26.1 µM (inactive) | > 100 µM (inactive) | > 100 µM (inactive) | > 100 µM (inactive) | > 100 µM (inactive) | > 100 µM (inactive) | > 100 µM (inactive) | > 100 µM (inactive) | > 100 µM (inactive) | – | > 100 µM (inactive) | > 100 µM (inactive) | > 100 µM (inactive) | > 100 µM (inactive) | > 100 µM (inactive) | – | > 100 µM (inactive)
